Measured values taken from ChEMBL document CHEMBL4004889, “Discovery of selective ATP-competitive eIF4A3 inhibitors” (Bioorg Med Chem, 2017).
pIC50, pKd, pKi: −log10 of the molar value.

Key:
[1] = target: T1, Eukaryotic initiation factor 4A-III (Homo sapiens, UniProt P38919); test: Inhibition of MLN51-induced full length recombinant human N-terminal His6/SUMO-tagged eIF4A3 RNA dependent ATPase activity expressed in Escherichia coli BL21(DE3) using 60 ug/ml single stranded poly(U) RNA as substrate after 30 mins by ADP-Glo luminescence assay
[2] = target: T1, Eukaryotic initiation factor 4A-III; test: Binding affinity to full length recombinant human N-terminal His6/SUMO-tagged eIF4A3 expressed in Escherichia coli BL21(DE3) administered for 60 to 120 secs by surface plasmon resonance biosensing assay
[3] = target: T1, Eukaryotic initiation factor 4A-III
Description: Binding affinity to full length recombinant human N-terminal His6/SUMO-tagged eIF4A3 expressed in Escherichia coli BL21(DE3) assessed as dissociation half-life administered for 60 to 120 secs by surface plasmon resonance biosensing assay

[4] = target: T2, ATP-dependent RNA helicase DHX29 (Homo sapiens, UniProt Q7Z478); test: Inhibition of full length recombinant human N-terminal FLAG-His-tagged DHX29 RNA dependent ATPase activity expressed in baculovirus infected Sf9 insect cells using single stranded poly(U) RNA as substrate after 30 mins by ADP-Glo luminescence assay
T2 sequence (Q7Z478 whole entry): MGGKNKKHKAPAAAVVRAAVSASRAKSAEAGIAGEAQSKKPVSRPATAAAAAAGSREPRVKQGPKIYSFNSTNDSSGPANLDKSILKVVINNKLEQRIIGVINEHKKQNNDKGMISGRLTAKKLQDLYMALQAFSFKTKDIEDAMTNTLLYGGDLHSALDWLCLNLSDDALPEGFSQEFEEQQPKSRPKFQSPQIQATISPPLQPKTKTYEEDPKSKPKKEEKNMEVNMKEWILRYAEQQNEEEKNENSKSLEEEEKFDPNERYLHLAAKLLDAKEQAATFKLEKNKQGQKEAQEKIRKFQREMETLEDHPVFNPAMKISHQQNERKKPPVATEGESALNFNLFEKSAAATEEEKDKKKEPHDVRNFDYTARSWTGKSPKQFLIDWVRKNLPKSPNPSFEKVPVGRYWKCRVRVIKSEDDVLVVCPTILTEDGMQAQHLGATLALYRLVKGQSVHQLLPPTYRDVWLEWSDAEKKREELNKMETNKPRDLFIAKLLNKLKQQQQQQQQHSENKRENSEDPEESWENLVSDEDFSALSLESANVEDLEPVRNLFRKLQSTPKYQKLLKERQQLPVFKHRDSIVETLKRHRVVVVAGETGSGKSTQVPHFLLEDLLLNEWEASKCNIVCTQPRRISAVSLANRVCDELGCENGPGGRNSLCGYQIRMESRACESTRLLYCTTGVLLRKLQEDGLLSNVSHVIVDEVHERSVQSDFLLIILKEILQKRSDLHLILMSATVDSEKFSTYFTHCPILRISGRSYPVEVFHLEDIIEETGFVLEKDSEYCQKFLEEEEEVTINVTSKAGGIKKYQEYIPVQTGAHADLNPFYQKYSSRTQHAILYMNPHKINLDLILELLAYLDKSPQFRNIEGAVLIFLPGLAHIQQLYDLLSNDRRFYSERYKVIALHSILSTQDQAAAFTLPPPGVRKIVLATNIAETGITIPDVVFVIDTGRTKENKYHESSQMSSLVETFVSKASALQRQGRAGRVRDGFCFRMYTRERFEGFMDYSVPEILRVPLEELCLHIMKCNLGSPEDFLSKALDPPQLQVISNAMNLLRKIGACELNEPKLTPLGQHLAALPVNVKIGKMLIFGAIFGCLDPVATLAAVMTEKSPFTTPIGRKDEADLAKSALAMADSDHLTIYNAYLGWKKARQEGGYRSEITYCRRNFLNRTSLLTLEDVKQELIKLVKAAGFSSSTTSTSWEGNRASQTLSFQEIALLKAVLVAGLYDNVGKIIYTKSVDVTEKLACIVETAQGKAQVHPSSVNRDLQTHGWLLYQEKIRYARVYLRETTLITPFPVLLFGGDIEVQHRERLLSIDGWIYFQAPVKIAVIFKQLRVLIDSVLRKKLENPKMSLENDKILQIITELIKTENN

[5] = target: Eukaryotic initiation factor 4A-II (Homo sapiens, UniProt Q14240); test: Inhibition of eIF4G-induced eIF4A2 (unknown origin) RNA dependent ATPase activity expressed in Escherichia coli BL21(DE3) using single stranded poly(U) RNA as substrate after 40 mins by ADP-Glo luminescence assay
[6] = target: Eukaryotic initiation factor 4A-I (Homo sapiens, UniProt P60842); test: Inhibition of eIF4G-induced full length recombinant human N-terminal His6/SUMO-tagged eIF4A1 RNA dependent ATPase activity expressed in Escherichia coli BL21(DE3) using single stranded poly(U) RNA as substrate after 40 mins by ADP-Glo luminescence assay
[7] = target: U5 small nuclear ribonucleoprotein 200 kDa helicase (Homo sapiens, UniProt O75643); test: Inhibition of full length recombinant human N-terminal His-tagged BRR2 RNA dependent ATPase activity expressed in baculovirus infected Sf9 insect cells using single stranded poly(U) RNA as substrate after 30 mins by ADP-Glo luminescence assay
[8] = target: T1, Eukaryotic initiation factor 4A-III; test: Inhibition of MLN51-induced full length recombinant human N-terminal His6/SUMO-tagged eIF4A3 expressed in Escherichia coli BL21(DE3) using 1.5 ug/ml single stranded poly(U) RNA after 45 mins by ADP-Glo luminescence assay
[9] = target: T1, Eukaryotic initiation factor 4A-III; test: ATP competitive inhibition of MLN51-induced full length recombinant human N-terminal His6/SUMO-tagged eIF4A3 expressed in Escherichia coli BL21(DE3) using varying ATP levels after 30 mins by ADP-Glo luminescence assay
[10] = target: T1, Eukaryotic initiation factor 4A-III; test: Binding affinity to full length recombinant human N-terminal His6/SUMO-tagged eIF4A3 expressed in Escherichia coli BL21(DE3) by isothermal titration calorimetric method
[11] = target: T1, Eukaryotic initiation factor 4A-III; remark: listed apart in the source
Description: Binding affinity to full length recombinant human N-terminal His6/SUMO-tagged eIF4A3 expressed in Escherichia coli BL21(DE3) assessed as change in Gibbs free energy by isothermal titration calorimetric method

[12] = target: T1, Eukaryotic initiation factor 4A-III; remark: listed apart in the source
Description: Binding affinity to full length recombinant human N-terminal His6/SUMO-tagged eIF4A3 expressed in Escherichia coli BL21(DE3) assessed as change in entropy by isothermal titration calorimetric method

[13] = target: T1, Eukaryotic initiation factor 4A-III; remark: listed apart in the source
Description: Binding affinity to full length recombinant human N-terminal His6/SUMO-tagged eIF4A3 expressed in Escherichia coli BL21(DE3) assessed as change in enthalpy by isothermal titration calorimetric method

Chain of Eukaryotic initiation factor 4A-I (P60842 whole entry): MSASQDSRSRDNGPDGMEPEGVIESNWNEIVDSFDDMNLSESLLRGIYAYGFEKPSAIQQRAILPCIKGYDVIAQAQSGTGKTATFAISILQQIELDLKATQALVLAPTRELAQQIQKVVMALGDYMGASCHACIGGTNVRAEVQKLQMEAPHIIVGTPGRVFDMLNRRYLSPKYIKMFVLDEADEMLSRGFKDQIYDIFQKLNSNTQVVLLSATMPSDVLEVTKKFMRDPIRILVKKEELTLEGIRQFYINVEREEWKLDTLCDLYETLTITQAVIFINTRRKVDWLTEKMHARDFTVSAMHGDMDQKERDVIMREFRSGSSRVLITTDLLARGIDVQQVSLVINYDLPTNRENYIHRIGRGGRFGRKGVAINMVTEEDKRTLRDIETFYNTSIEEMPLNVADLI
T1 sequence (P38919 whole entry): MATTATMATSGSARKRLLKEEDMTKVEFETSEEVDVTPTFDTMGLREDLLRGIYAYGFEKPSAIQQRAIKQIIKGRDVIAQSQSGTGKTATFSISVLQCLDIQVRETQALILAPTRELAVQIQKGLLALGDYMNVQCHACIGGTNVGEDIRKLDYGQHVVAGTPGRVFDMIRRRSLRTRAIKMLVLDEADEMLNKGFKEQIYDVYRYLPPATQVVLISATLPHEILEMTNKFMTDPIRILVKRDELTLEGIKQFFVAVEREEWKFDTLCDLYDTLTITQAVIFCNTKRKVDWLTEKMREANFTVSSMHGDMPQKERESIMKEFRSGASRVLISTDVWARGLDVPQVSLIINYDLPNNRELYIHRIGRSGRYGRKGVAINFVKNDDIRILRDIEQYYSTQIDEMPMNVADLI
Chain of Eukaryotic initiation factor 4A-II (Q14240 whole entry): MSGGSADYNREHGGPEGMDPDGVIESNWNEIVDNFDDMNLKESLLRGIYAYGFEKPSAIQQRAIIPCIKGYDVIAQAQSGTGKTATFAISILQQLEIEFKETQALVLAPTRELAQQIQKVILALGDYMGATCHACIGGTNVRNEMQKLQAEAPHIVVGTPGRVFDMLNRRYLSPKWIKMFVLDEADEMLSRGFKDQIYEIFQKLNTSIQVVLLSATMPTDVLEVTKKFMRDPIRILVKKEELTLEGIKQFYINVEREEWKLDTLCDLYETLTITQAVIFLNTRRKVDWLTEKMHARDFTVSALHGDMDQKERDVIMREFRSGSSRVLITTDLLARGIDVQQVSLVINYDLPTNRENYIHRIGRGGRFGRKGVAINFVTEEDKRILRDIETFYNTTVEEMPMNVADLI
Chain of U5 small nuclear ribonucleoprotein 200 kDa helicase (O75643 whole entry): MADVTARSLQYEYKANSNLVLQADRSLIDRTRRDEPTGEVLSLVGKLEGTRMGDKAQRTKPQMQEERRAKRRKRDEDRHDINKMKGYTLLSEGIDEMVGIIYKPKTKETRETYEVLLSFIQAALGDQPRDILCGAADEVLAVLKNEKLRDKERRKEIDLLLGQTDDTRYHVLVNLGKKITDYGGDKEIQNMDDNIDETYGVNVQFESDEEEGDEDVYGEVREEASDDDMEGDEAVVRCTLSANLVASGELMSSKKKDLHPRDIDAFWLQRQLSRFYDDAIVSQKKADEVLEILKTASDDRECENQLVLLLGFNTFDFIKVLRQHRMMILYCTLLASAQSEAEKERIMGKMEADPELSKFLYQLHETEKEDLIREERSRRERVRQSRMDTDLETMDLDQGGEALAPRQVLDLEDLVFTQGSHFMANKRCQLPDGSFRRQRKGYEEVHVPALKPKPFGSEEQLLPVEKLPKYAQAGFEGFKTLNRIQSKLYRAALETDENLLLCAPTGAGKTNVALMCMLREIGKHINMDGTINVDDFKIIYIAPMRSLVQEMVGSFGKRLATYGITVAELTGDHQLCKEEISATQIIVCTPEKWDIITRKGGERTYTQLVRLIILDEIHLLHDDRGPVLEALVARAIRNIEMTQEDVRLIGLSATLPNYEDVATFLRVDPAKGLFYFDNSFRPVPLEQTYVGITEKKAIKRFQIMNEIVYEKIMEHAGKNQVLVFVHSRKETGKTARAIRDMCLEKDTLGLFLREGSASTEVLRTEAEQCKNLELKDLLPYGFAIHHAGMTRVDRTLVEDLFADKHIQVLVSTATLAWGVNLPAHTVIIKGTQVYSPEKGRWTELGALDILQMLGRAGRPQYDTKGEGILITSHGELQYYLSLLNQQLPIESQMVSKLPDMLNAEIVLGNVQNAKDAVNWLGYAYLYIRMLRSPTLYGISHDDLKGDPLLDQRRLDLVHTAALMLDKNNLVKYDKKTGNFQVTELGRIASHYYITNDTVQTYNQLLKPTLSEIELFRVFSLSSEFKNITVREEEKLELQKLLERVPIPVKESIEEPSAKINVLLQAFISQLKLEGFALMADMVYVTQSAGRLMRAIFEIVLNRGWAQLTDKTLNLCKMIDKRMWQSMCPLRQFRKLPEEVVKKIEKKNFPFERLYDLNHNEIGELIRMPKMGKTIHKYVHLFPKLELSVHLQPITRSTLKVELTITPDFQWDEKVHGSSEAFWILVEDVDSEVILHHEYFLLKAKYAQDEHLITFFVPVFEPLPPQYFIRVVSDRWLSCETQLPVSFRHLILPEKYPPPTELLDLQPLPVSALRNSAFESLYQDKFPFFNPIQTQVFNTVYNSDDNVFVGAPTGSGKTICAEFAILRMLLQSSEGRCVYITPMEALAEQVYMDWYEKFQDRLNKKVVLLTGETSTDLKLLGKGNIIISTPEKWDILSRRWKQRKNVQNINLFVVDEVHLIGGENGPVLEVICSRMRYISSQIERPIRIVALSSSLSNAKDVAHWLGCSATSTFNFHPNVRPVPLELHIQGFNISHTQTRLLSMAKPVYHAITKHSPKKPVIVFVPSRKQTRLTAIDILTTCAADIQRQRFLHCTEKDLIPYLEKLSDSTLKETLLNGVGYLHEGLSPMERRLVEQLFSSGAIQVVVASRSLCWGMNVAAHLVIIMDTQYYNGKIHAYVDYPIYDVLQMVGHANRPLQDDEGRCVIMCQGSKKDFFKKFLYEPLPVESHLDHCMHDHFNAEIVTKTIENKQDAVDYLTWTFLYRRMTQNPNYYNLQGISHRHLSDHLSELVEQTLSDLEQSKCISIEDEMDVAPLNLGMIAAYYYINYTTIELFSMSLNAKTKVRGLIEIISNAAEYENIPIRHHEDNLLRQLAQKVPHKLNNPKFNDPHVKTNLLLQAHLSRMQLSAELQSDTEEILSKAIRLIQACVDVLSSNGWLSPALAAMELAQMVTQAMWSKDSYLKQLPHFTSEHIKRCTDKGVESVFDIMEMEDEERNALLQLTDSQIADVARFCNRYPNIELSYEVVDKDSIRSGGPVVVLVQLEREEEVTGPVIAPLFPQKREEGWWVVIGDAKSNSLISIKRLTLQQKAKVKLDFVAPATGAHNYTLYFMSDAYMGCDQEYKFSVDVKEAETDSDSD

COC(=O)c1cc2ccc(C(C)C)cc2[nH]1
pIC50 [1]: < 4.00

CC(C)c1ccc2cc(C(=O)O)[nH]c2c1Cl
pIC50 [1]: < 4.00

CCc1ccc2cc(C(=O)O)[nH]c2c1
pIC50 [1]: < 4.00

CC(C)c1cc(F)c2cc(C(=O)O)[nH]c2c1
pIC50 [1]: 5.30

CC(C)c1ccc2cc(C(=O)O)[nH]c2c1
pKd [2]: 5.27
pIC50 [1]: 4.57

O=C(O)c1cc2ccc(Cl)cc2[nH]1
pIC50 [1]: < 4.00

C[C@H]1C[C@@]2(O[C@H]3C[C@H]4[C@@H]5CC[C@H]6C[C@H](O)CC[C@]6(C)[C@H]5[C@@H](O)C[C@]4(C)[C@H]3[C@@]2(C)O)OC1(C)C [HIPPURISTANOL]
pKd [2]: 4.30
T1/2 [3]: 12.2 s
pIC50 [4]: < 4.52
pIC50 [1]: 4.40
pIC50 [5]: 4.74
pIC50 [6]: 5.51
pIC50 [7]: < 4.52

CC(C)c1cc2[nH]c(C(=O)O)cc2cc1F
pIC50 [1]: 4.52

CC(C)c1cc(Cl)c2cc(C(=O)O)[nH]c2c1F
pKd [2]: 6.70
T1/2 [3]: 8.9 s
pIC50 [4]: < 4.00
pIC50 [8]: 6.44
pIC50 [1]: 6.01
pKi [9]: 6.37
pIC50 [5]: < 4.00
pIC50 [6]: < 4.00
pIC50 [7]: < 4.00
pKd [10]: 7.21
deltaG [11]: -9.9 kcal/mol
-TdeltaS [12]: 16.1 kcal/mol
deltaH [13]: -26 kcal/mol

Cc1ccc2cc(C(=O)O)[nH]c2c1
pIC50 [1]: < 4.00

CC(C)c1ccc2cc(C(=O)O)[nH]c2c1F
pIC50 [1]: 5.16
pIC50 [6]: < 4.00

CC(C)c1ccc2cc(-c3nnn[nH]3)[nH]c2c1
pIC50 [1]: 4.52

CC(C)c1cc(Cl)c2cc(C(=O)O)[nH]c2c1
pIC50 [1]: 5.72
pIC50 [6]: < 4.00

CC(C)c1ccc2cc(C(N)=O)[nH]c2c1
pIC50 [1]: < 4.00

CC(C)c1ccc2c(F)c(C(=O)O)[nH]c2c1
pIC50 [1]: 4.70

CC(C)c1cccc2cc(C(=O)O)[nH]c12
pIC50 [1]: < 4.00

CC(C)c1ccc2[nH]c(C(=O)O)cc2c1
pIC50 [1]: < 4.00

CC(C)c1ccc2cc(C(=O)O)n(C)c2c1
pIC50 [1]: < 4.00
